One may read the inhibition as the percentage by which the read-out fell short of the control. Usually IC50 stands for the concentration at which inhibition is half-maximal.

One experiment concerns the target T1, Rsk1 (Homo sapiens, UniProt Q15418).
T1 construct: purchased Upstate
Put plainly: Upstate KinaseProfiler radio-enzymatic filter binding assay, Rsk1. The class given is biochemical. Conditions: 10 μM compound; read-out: percentage inhibition, Rsk1. As for the experimental part: (§1) Compounds of the invention are assessed for their ability to inhibit individual members of a panel of kinases (a partial, non-limiting list of kinases includes: cSRC, Lck, FGFR3, Flt3, TrkB and PFGFRα). The compounds are tested in duplicates at a final concentration of 10 μM following this generic protocol. Note that the kinase buffer composition and the substrates vary for the different kinases included in the “Upstate KinaseProfiler™” panel. Kinase buffer (2.5 μL, 10×-containing MnCl2 when required), active kinase (0.001-0.01 Units; 2.51 μL), specific or Poly(Glu4-Tyr) peptide (5-500 μM or 0.01 mg/ml) in kinase buffer and kinase buffer (50 μM; 5 μL) are mixed in an eppendorf on ice. A Mg/ATP mix (10 μL; 67.5 (or 33.75) mM MgCl2, 450 (or 225) μM ATP and 1 μCi/μl [γ-^32P]-ATP (3000 Ci/mmol)) is added and the reaction is incubated at about 30° C. for about 10 minutes. […] The assay squares are transferred to a scintillation vial, 5 ml scintillation cocktail are added and ^32P incorporation (cpm) to the peptide substrate is quantified with a Beckman scintillation counter. Percentage inhibition is calculated for each reaction.

In another experiment the target is T2, Lck (Homo sapiens, UniProt P06239).
T2 construct: purchased Upstate
The experiment is described as follows: Upstate KinaseProfiler radio-enzymatic filter binding assay, Lck. Conditions: 10 μM compound; read-out: percentage inhibition, Lck. Type of experiment: biochemical. As for the experimental part:
(§2) Compounds of the invention are assessed for their ability to inhibit individual members of a panel of kinases (a partial, non-limiting list of kinases includes: cSRC, Lck, FGFR3, Flt3, TrkB and PFGFRα). The compounds are tested in duplicates at a final concentration of 10 μM following this generic protocol. Note that the kinase buffer composition and the substrates vary for the different kinases included in the “Upstate KinaseProfiler™” panel. Kinase buffer (2.5 μL, 10×-containing MnCl2 when required), active kinase (0.001-0.01 Units; 2.51 μL), specific or Poly(Glu4-Tyr) peptide (5-500 μM or 0.01 mg/ml) in kinase buffer and kinase buffer (50 μM; 5 μL) are mixed in an eppendorf on ice. A Mg/ATP mix (10 μL; 67.5 (or 33.75) mM MgCl2, 450 (or 225) μM ATP and 1 μCi/μl [γ-^32P]-ATP (3000 Ci/mmol)) is added and the reaction is incubated at about 30° C. for about 10 minutes. The reaction mixture is spotted (20 μL) onto a 2 cm×2 cm P81 (phosphocellulose, for positively charged peptide substrates) or Whatman No. 1 (for Poly (Glu4-Tyr) peptide substrate) paper square. The assay squares are washed 4 times, for 5 minutes each, with 0.75% phosphoric acid and washed once with acetone for 5 minutes. The assay squares are transferred to a scintillation vial, 5 ml scintillation cocktail are added and ^32P incorporation (cpm) to the peptide substrate is quantified with a Beckman scintillation counter. Percentage inhibition is calculated for each reaction.

The next experiment concerns the target T3, Flt3 (Homo sapiens, UniProt P36888).
T3 construct: purchased Upstate
T3 sequence (P36888 27-993): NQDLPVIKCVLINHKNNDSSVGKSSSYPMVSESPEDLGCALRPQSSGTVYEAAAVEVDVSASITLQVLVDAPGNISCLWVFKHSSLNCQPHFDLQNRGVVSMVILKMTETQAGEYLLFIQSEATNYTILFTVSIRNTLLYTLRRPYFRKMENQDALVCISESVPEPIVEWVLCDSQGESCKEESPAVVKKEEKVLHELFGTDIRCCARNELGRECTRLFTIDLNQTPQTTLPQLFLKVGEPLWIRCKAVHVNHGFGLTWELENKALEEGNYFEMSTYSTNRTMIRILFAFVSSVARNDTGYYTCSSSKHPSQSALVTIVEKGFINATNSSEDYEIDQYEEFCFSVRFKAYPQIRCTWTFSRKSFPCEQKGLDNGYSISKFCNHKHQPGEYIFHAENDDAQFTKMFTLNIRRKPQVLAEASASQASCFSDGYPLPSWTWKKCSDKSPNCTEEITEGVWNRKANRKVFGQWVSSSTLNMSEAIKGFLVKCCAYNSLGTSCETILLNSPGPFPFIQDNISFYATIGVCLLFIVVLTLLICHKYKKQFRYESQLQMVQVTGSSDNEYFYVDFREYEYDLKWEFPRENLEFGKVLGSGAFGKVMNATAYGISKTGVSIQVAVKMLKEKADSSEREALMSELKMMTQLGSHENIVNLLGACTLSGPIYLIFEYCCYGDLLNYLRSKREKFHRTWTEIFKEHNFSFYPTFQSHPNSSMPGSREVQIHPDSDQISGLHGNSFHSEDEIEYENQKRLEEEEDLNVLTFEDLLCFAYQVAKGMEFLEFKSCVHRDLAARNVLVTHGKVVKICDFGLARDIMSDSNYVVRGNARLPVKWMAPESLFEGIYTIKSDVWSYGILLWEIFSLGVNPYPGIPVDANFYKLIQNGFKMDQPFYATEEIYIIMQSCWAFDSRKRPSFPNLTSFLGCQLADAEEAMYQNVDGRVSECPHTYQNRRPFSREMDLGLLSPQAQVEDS
The experiment is described as follows: Upstate KinaseProfiler radio-enzymatic filter binding assay, Flt3. Type of experiment: biochemical. Conditions: 10 μM compound; read-out: percentage inhibition, Flt3. As for the experimental part: as §2

A further experiment concerns the target T4, c-Src (Homo sapiens, UniProt P12931).
T4 construct: purchased Upstate
Put plainly: Upstate KinaseProfiler radio-enzymatic filter binding assay, c-Src. Conditions: 10 μM compound; read-out: percentage inhibition, c-Src. The class given is biochemical. The method, then:
as §2

Another experiment concerns the target T5, TrkB (Homo sapiens, UniProt Q16620).
T5 construct: purchased Upstate
The experiment is described as follows: Upstate KinaseProfiler radio-enzymatic filter binding assay, TrkB. Type of experiment: biochemical. The conditions noted are these: 10 μM compound; read-out: percentage inhibition, TrkB. As for the experimental part:
as §2

The target in another experiment is T6, Bmx (Homo sapiens, UniProt P51813).
T6 construct: purchased Upstate
T6 sequence (P51813 1-675): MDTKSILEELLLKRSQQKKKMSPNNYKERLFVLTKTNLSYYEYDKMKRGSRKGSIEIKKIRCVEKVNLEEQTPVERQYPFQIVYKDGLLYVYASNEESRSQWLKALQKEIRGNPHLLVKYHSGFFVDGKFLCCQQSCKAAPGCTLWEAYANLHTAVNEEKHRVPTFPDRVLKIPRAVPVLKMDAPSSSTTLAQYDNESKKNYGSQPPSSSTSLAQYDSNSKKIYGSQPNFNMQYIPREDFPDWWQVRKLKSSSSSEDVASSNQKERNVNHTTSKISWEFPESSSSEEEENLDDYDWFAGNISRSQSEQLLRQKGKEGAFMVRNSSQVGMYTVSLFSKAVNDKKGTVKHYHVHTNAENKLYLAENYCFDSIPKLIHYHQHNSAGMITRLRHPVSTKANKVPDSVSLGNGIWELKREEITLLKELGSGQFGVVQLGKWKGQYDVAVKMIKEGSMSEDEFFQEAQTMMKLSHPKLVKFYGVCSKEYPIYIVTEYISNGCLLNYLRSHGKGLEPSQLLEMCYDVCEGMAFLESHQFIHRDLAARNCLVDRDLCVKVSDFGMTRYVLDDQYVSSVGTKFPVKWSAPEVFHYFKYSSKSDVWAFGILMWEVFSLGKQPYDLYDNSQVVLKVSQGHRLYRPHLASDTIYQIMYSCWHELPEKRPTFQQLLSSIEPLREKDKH
Put plainly: Upstate KinaseProfiler radio-enzymatic filter binding assay, Bmx. Conditions: 10 μM compound; read-out: percentage inhibition, Bmx. The class given is biochemical. The method, then:
as §2

In another experiment the test system is Ba/F3-Flt3-ITD cells. Put plainly: Ba/F3-Flt3-ITD cell proliferation/cytotoxicity (Yo-Pro). Type of experiment: cell-based. The conditions noted are these: Ba/F3 cells dependent on mutant Flt3, 48 hours, read-out: IC50 in the assay described by example 14. From the text:
Compounds that have differential activity (more than or equal to 10 fold difference in sensitivity between Flt3+ cell lines and Flt3− cell lines are selected for further study.
The cell lines used for the initial screening are sub-lines of Ba/F3 cells that are engineered to over-express mutant or wild-type (non-mutated) Flt3 following infection with a retrovirus expressing appropriate Flt3 cDNAs. The parent cell line, Ba/F3 is dependent on interleukin-3 for proliferation, and when deprived of IL-3, the cells rapidly cease proliferation and die. The retrovirus expresses Flt3 from the retrovirual LTR and the neo gene from an IRES site. Ba/F3 cells are selected in G418 and analyzed for expression of Flt3 by fluorescence activated cell sorting (FACS). Cell lines with two different Flt3 mutations are used. One mutant expresses a Flt-3 that has a 14 amino acid duplication in the juxtamembrane domain encoded by exon 11, the specific duplication being . . . VDFREYEYDLKWEF . . . […]
Yo-Pro-1 iodide (Molecular Probes) is added to the cells at a final concentration of 2.5 μM in NaCl/Na-citrate buffer. The cells are incubated with Yo-Pro for 10 minutes at room temperature and then read on a fluorimeter for determination of cytotoxicity. Next, the cells are lysed with NP40/EDTA/EGTA buffer, incubated at room temperature for 90 minutes and read for the determination of proliferation. […]

The target of the next experiment is T7, purified GST-Flt-3 (Homo sapiens, UniProt P36888).
T7 sequence (P36888 27-993): T3 sequence (P36888 27-993)
The experiment is described as follows: Flt-3 tyrosine protein kinase assay, 33P incorporation from γ-33P-ATP into poly-EY. The class given is biochemical. The conditions noted are these: purified GST-Flt-3, 10 μM ATP; read-out: IC50 in the assay described in example 13. As for the experimental part:
The activity is assayed in the presence or absence of different concentrations of inhibitors, by measuring the incorporation of ^33P from γ-^33P-ATP into appropriate substrates.
Tyrosine protein kinase assay with purified GST-Flt-3 is carried out in a final volume of 40 μL containing 500 ng of enzyme in kinase buffer (30 mM Tris-HCl (pH7.5), 3 mM MnCl2, 15 mM MgCl2, 1.5 mM DTT, 15 μM Na3VO4, 7.5 mg/ml PEG, 0.25 μM poly-EY(Glu, Tyr), 1% DMSO (at highest concentration of compound), 10 μM ATP and γ-^33P-ATP (0.1 μCi)). Two solutions are made: the first solution of 10 μl contains the Flt-3 enzyme and the inhibitor. The second solution contains the substrate (poly-EY), ATP, and γ-^33P-ATP in 30 μl of kinase buffer. Both solutions are mixed on 96-well PVDF filter plates (Millipore, Bedford, Mass., USA), previously wetted with 70% ethanol and rinsed with 1M Tris (7.4). The reaction is incubated at room temperature for 20 minutes, stopped with 0.1% phosphoric acid and then filtered through the plate using a vacuum manifold, allowing the substrate to bind to the membrane. The plates are then washed 5 times with 0.1% phosphoric acid, mounted in Packard TopCount 96-well adapter plate, and 50 μL of Microscint™ (Packard) is added to each well before counting. […]

The target of the next experiment is T8, FGFR3 (Homo sapiens, UniProt P22607).
T8 construct: purchased Upstate
Put plainly: Upstate KinaseProfiler radio-enzymatic filter binding assay, FGFR3. The class given is biochemical. The conditions noted are these: 10 μM compound; read-out: percentage inhibition, FGFR3. As for the experimental part:
as §1

The target of another experiment is T9, Abl (Homo sapiens, UniProt P00519).
T9 construct: purchased Upstate
Put plainly: Upstate KinaseProfiler radio-enzymatic filter binding assay, Abl. The class given is biochemical. Conditions: 10 μM compound; read-out: percentage inhibition, Abl. The method, then:
as §1

T2 sequence (P06239 whole entry): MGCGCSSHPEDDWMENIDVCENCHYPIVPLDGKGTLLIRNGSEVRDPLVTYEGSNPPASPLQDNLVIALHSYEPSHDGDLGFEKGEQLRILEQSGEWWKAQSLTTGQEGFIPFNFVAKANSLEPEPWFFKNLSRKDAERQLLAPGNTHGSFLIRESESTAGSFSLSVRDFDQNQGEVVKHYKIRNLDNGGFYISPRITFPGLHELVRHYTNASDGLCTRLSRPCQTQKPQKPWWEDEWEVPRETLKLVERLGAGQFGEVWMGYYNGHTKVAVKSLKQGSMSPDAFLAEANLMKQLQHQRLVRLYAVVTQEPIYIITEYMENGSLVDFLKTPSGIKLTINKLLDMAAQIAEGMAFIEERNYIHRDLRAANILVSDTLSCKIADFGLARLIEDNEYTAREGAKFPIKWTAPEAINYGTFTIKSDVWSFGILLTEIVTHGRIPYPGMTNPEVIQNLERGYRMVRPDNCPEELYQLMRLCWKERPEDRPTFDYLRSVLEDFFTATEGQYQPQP
T4 sequence (P12931 whole entry): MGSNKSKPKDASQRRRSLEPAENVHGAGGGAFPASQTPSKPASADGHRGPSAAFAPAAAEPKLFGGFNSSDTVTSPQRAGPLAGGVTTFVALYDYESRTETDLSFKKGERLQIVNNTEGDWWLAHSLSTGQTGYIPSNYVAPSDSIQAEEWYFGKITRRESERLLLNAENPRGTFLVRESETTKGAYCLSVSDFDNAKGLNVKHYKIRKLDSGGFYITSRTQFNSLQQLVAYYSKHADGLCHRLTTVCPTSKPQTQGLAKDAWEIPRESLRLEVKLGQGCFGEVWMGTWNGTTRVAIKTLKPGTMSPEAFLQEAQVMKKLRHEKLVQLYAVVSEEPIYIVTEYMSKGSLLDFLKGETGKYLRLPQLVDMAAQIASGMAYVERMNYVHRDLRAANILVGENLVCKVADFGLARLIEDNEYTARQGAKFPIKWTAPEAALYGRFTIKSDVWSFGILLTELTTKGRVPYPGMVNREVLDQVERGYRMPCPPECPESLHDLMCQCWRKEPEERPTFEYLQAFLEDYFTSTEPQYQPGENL
T5 sequence (Q16620 32-822): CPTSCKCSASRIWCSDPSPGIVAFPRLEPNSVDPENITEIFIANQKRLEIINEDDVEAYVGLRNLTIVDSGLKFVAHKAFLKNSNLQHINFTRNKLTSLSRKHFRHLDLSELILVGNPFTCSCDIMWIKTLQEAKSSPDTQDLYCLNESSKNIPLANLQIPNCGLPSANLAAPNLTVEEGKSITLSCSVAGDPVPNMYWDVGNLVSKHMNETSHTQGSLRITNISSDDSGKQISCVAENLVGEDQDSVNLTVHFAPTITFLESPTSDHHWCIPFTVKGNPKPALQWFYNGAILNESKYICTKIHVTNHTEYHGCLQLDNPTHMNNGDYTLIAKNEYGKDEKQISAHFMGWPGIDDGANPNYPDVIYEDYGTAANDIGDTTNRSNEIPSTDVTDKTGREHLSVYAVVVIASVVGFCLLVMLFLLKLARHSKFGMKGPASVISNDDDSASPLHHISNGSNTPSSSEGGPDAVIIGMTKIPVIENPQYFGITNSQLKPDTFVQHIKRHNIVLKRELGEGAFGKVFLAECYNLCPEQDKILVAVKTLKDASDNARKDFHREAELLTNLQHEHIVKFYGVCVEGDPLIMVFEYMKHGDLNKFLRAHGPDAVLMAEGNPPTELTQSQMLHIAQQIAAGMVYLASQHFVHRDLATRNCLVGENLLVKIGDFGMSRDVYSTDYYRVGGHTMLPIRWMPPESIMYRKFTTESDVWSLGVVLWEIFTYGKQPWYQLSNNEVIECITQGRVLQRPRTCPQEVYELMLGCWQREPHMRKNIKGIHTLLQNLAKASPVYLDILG
T9 sequence (P00519 whole entry, species assumed): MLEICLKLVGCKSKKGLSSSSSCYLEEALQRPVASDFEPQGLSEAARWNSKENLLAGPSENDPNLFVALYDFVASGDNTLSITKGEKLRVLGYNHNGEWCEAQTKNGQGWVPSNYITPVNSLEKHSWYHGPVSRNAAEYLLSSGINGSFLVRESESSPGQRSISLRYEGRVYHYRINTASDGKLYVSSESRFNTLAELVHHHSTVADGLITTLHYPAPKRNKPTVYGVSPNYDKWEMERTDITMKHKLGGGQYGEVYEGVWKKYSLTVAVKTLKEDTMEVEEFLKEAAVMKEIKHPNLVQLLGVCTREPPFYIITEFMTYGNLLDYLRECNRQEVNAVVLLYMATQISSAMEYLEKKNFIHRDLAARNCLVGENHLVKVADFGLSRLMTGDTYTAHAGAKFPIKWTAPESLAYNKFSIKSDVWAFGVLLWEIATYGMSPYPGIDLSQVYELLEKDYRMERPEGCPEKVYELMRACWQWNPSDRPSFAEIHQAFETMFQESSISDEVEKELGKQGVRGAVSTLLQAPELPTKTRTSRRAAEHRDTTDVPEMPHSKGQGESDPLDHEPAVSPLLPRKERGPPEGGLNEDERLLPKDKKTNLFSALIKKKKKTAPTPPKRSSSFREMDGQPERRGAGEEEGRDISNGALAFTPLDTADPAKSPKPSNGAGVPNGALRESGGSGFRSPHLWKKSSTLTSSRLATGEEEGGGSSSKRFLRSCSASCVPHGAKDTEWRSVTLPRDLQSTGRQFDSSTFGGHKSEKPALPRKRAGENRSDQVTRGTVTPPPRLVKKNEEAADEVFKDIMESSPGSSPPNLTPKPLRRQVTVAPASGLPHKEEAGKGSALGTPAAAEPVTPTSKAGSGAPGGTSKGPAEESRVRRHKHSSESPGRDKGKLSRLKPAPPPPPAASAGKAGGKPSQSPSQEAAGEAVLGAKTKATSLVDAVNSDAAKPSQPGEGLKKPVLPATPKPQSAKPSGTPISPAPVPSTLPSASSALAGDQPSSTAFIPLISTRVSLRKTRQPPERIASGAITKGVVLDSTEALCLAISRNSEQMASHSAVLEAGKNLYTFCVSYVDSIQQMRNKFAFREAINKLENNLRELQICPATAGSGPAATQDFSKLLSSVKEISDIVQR
T1 sequence (Q15418 whole entry, species assumed): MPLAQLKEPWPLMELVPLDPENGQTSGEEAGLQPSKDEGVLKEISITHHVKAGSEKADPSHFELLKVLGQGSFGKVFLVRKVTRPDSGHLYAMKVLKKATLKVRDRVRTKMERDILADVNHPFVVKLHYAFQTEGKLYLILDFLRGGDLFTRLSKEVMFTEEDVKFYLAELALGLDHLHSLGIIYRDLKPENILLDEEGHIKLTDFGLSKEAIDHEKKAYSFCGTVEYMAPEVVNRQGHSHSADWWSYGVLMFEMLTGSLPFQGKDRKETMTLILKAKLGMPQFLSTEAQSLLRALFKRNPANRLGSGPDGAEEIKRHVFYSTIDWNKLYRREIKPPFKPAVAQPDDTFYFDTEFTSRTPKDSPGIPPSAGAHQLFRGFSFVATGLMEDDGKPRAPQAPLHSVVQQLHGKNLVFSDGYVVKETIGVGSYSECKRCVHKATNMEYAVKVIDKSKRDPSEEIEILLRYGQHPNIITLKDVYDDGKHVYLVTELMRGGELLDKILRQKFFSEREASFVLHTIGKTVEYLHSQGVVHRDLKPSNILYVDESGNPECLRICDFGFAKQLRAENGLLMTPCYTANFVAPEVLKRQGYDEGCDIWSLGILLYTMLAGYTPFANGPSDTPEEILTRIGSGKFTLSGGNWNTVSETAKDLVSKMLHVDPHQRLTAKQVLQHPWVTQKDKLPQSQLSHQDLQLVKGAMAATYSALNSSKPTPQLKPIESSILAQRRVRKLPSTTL
T8 sequence (P22607 23-806): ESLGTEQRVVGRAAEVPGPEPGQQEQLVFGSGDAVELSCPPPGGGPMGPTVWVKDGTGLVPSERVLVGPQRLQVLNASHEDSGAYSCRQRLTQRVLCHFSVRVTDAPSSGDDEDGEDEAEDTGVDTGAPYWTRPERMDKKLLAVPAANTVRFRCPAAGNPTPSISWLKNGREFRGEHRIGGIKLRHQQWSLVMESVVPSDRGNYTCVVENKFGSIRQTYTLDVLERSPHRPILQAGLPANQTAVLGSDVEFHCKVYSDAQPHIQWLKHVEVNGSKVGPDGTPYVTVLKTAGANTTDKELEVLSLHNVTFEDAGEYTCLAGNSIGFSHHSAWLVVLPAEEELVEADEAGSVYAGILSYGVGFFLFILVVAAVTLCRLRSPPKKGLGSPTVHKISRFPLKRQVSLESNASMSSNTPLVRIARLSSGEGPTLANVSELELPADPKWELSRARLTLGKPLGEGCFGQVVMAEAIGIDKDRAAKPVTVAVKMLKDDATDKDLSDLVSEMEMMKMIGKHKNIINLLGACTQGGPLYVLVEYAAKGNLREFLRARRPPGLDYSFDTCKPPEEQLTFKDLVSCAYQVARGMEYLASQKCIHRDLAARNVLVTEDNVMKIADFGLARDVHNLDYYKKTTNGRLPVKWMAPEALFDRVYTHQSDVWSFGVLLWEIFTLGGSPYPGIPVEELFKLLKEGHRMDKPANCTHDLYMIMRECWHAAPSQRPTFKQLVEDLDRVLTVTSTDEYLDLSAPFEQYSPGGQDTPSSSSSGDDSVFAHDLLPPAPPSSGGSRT

Take `CN1CCC(N(C)c2nc(Nc3ccc(N4CCOCC4)cc3)c3ncn(-c4cscn4)c3n2)CC1` [Compound 539, N^2-Methyl-N^2-(1-methyl-piperidin-4-yl)-N^6-(4-morpholin-4-yl-phenyl)-9-thiazol-4-yl-9H-purine-2,6-diamine]: the inhibition at 10 µM on Rsk1 amounted to 82%; at Lck, 99%; at Flt3, 100%; on c-Src it was 97%; on TrkB, 99%; on Bmx, 90%.
For the compound `NC1CCC(Nc2nc(Nc3ccc(C(=O)N4CCCCC4)cc3)c3ncn(-c4ccsc4)c3n2)CC1` (stereo not drawn) [{4-[2-(4-amino-cyclohexylamino)-9-thiophen-3-yl-9H-purin-6-ylamino]-phenyl}-piperidin-1-yl-methanone], the IC50 amounted to 5 nM in the experiment on Ba/F3-Flt3-ITD cells and 7 nM at purified GST-Flt-3.
With `CS(=O)(=O)c1ccc(Nc2nc(NCc3ccccn3)nc3c2ncn3-c2cscn2)cc1` [Compound 554, N^6-(4-Methanesulfonyl-phenyl)-N^2-pyridin-2-ylmethyl-9-thiazol-4-yl-9H-purine-2,6-diamine], the inhibition at 10 µM at Lck stood at 95%; on FGFR3, 98%; at Abl, 98%; on Flt3, 100%; at c-Src, 99%; at TrkB, 99%. Moreover, the inhibition at 10 µM on Bmx turned out to be 86%.
Take `CS(=O)(=O)c1ccc(Nc2nc(N3CCOCC3)nc3c2ncn3-c2cscn2)cc1` [Compound 503, (4-Methanesulfonyl-phenyl)-(2-morpholin-4-yl-9-thiazol-4-yl-9H-purin-6-yl)-amine]: the inhibition at 10 µM on Lck is 99%; on Abl, 81%; on Flt3 it was 99%; on c-Src it was 98%; on TrkB it was 99%; on Bmx, 71%.

Values taken from patent publication US20050124637A1, “Compounds and compositions as inhibitors of receptor tyrosine kinase activity” (IRM LLC, priority 2003, published 2005).
